# From US6787525B1, “Glyceryl nucleotides, method for the production thereof and their use” (priority 1998, dated 2004)
# Tests used:
# HIV = assay: In-vitro anti-HIV effect: inhibition of HIV-induced cell death of T4 lymphocytes (CEM-SS), XTT; type: cell-based; conditions: 6 days
# Procedure: (§1) T4 lymphocytes (cell line: CEM-SS), which are killed by HIV within two replication cycles, are used as the test system. That which is detected is the inhibition of cell death. The compound according to the invention is dissolved in DMSO and this solution is diluted with cell culture medium in the ratio 1:100. […] All the cell cultures are examined spectrophotometrically in order to quantify production of formazan. In addition to this, individual cultures are examined microscopically in order to confirm the anti-HIV activity. The virus-infected cells which have been treated with the compound according to the invention are compared with the standard on the same plate. The in-vitro anti-HIV activity data, which were determined within the context of a National Cancer Institute Developmental Therapeutics Program, are summarized in the following table.
# [1] = tested on: T4 lymphocytes (cell line: CEM-SS); assay: Toxicity control: uninfected T4 lymphocytes (CEM-SS) with compound only, XTT; type: cell-based; conditions: 6 days
# Procedure: as §1
smiles,measurement,setting,value
"CCCCCCCCCCCCCCCC(=O)Nc1ccn(C2CCC(COP(=O)(O)OCC(COP(=O)(O)OCC3OC(n4cc(C)c(=O)[nH]c4=O)CC3N=[N+]=[N-])OC(=O)CCCCCCCCCCCCCCC)O2)c(=O)n1 (racemic) [NSC 704532-F/1, N^4-palmitoyl-2′,3′-dideoxycytidylyl-(5′→1)-2-O-palmitoyl-rac-glycerylyl-(3→5′)-3′-azido-2′,3′-dideoxythymidine]",Percent of control infected,HIV; Dose 1.00 * 10^−6 molar,113.49%
same,Percent protection,"HIV; Dose 1.00 * 10^−6 molar, HIV-infected CEM-SS",114.05%
same,Percent of control infected,HIV; Dose 1.00 * 10^−7 molar,106.07%
same,Percent protection,"HIV; Dose 1.00 * 10^−7 molar, HIV-infected CEM-SS",106.32%
same,Percent of control infected,HIV; Dose 1.00 * 10^−8 molar,23.62%
same,Percent protection,"HIV; Dose 1.00 * 10^−8 molar, HIV-infected CEM-SS",20.44%
same,Percent of control infected,HIV; Dose 1.00 * 10^−9 molar,4.21%
same,Percent protection,"HIV; Dose 1.00 * 10^−9 molar, HIV-infected CEM-SS",0.22%
same,Percent of control infected,HIV; Dose 3.16 * 10^−7 molar,104.16%
same,Percent protection,"HIV; Dose 3.16 * 10^−7 molar, HIV-infected CEM-SS",104.33%
same,Percent of control infected,HIV; Dose 3.16 * 10^−8 molar,80.22%
same,Percent protection,"HIV; Dose 3.16 * 10^−8 molar, HIV-infected CEM-SS",79.40%
same,Percent of control infected,HIV; Dose 3.17 * 10^−9 molar,14.25%
same,Percent protection,"HIV; Dose 3.17 * 10^−9 molar, HIV-infected CEM-SS",10.68%
same,Percent of control infected,HIV; Dose 3.17 * 10^−10 molar,5.80%
same,Percent protection,"HIV; Dose 3.17 * 10^−10 molar, HIV-infected CEM-SS",1.88%
same,EC50,"HIV; HIV-infected CEM-SS, read-out: 50% protection from infection (EC5.)",17.9 nM
same,IC50,[1]; read-out: 50% cell growth (IC50),> 1000 nM
same,Percent of control uninfected,[1]; Dose 1.00 * 10^−6 molar,119.96%
same,Percent of control uninfected,[1]; Dose 1.00 * 10^−7 molar,112.26%
same,Percent of control uninfected,[1]; Dose 1.00 * 10^−8 molar,99.64%
same,Percent of control uninfected,[1]; Dose 1.00 * 10^−9 molar,105.03%
same,Percent of control uninfected,[1]; Dose 3.16 * 10^−7 molar,112.02%
same,Percent of control uninfected,[1]; Dose 3.16 * 10^−8 molar,104.96%
same,Percent of control uninfected,[1]; Dose 3.17 * 10^−9 molar,101.22%
same,Percent of control uninfected,[1]; Dose 3.17 * 10^−10 molar,105.43%
